Measurements published in US10076116B2, “N-cycloalkyl-N-(biheterocyclymethylene)-(thio)carboxamide derivatives” (BAYER CROPSCIENCE AKTIENGESELLSCHAFT, priority 2013, dated 2018).

Assays:
[1] = log P by HPLC on reversed-phase column (C 18), EEC Directive 79/831 Annex V.A8; type: physicochemical; details: HPLC C 18, 40° C., 0.1% aqueous formic acid and acetonitrile, gradient 10% to 90% acetonitrile; for chromatographic logP: reversed-phase HPLC column (C 18)
Protocol: In table 1, the log P values were determined in accordance with EEC Directive 79/831 Annex V.A8 by HPLC (High Performance Liquid Chromatography) on a reversed-phase column (C 18), using the method described below: Temperature: 40° C.; Mobile phases: 0.1% aqueous formic acid and acetonitrile; linear gradient from 10% acetonitrile to 90% acetonitrile. Calibration was carried out using unbranched alkan-2-ones (comprising 3 to 16 carbon atoms) with known log P values (determination of the log P values by the retention times using linear interpolation between two successive alkanones). lambda-max-values were determined using UV-spectra from 200 nm to 400 nm and the peak values of the chromatographic signals.

[2] = tested on: Puccinia recondita; assay: In vivo preventive test on Puccinia recondita (brown rust on wheat); details: for Efficacy (Table C2) / protection / Efficacy (Table C3): in very similar conditions; for Efficacy (Table C2) / Efficacy (Table C3): prior-art analogues; for Efficacy at 100 ppm (Table C1) / Efficacy at 500 ppm (Table C1): very similar conditions, formulated in DMF with 2% of alkylarylpolyglycolether
Protocol: Example C: In Vivo Preventive Test on Puccinia recondita (Brown Rust on Wheat) […]
The young plants of wheat are treated by spraying the active ingredient prepared as described above. […]
After 24 hours, the plants are contaminated by spraying the leaves with an aqueous suspension of Puccinia recondita spores. The contaminated wheat plants are incubated for 24 hours at 20° C. and at 100% relative humidity and then for 10 days at 20° C. and at 70-80% relative humidity.
The test is evaluated 11 days after the inoculation. 0% means an efficacy which corresponds to that of the control plants while an efficacy of 100% means that no disease is observed.

[3] = dose of 500 and 100 ppm, analogues of WO2012/059497

| logP [1] | Structure (SMILES) | also measured |
| --- | --- | --- |
| 4.54 | Cc1cc(C(=O)N(Cc2sccc2-c2ccc(C)s2)C2CC2)c(C)o1 [I.10] | – |
| 3.09 | Cn1cc(C(=O)N(Cc2cc(Br)cnc2Oc2cnc3ccccc3c2)C2CC2)c(C(F)F)n1 [Example I.56] | – |
| 3.69 | Cc1cscc1-c1cc(C(F)(F)F)cnc1CN(C(=O)c1cn(C)nc1C(F)F)C1CC1 [I.38] | – |
| 4.08 | Cc1ccc(-c2ccsc2CN(C(=O)c2sc(C)nc2C(F)F)C2CC2)s1 [I.06] | – |
| – | Cc1nn(C)c(F)c1C(=O)N(Cc1ccc(Oc2ccccc2)nc1)C1CC1 [35 from WO-2008/037789, N-cyclopropyl-5-fluoro-1,3-dimethyl-N-[(6-phenoxypyridin-3-yl)methyl]-1H-pyrazole-4-carboxamide] | Efficacy (Table C2) ([2]; dose 125 ppm): 0%; Efficacy (Table C2) ([2]; dose 500 ppm): 0%; protection ([2]; dose of 500 and 125 ppm, analogues of WO2009/016222 and WO2008/037789): good (at least 70%) to no protection |
| – | Cc1nn(C)c(F)c1C(=O)N(Cc1nc(-c2ccc(Cl)cc2)cs1)C1CC1 [12 from WO2008/015189, N-{[4-(4-chlorophenyl)-1,3-thiazol-2-yl]methyl}-N-cyclopropyl-5-fluoro-1,3-dimethyl-1H-pyrazole-4-carboxamide] | Efficacy (Table C3) ([2]; dose 500 ppm): 0% |
| 4.11 | Cc1ccc(-c2ccsc2CN(C(=O)c2nn(C)nc2C(F)F)C2CC2)s1 [I.07] | – |
| 4.03 | Cn1nc(C(F)F)c(C(=S)N(Cc2ncc(C(F)(F)F)cc2-c2ccoc2)C2CC2)c1F [I.36] | – |
| 2.82 | Cn1cc(C(=O)N(Cc2ncc(C(F)(F)F)cc2-c2cnc3ccccc3c2)C2CC2)c(C(F)F)n1 [I.44] | – |
| – | Cn1nc(C(F)F)c(C(=O)N(Cc2cc(-c3ccc(Cl)cc3)no2)C2CC2)c1F [153 from WO2012/059497, N-{[3-(4-chlorophenyl)-1,2-oxazol-5-yl]methyl}-N-cyclopropyl-3-(difluoromethyl)-5-fluoro-1-methyl-1H-pyrazole-4-carboxamide] | Efficacy at 100 ppm (Table C1) [2]: 10%; Efficacy at 500 ppm (Table C1) [2]: 80%; protection [2, 3]: good (at least 80%) to no protection |
| 3.48 | Cn1nc(C(F)F)c(C(=O)N(Cc2ncc(C(F)(F)F)cc2-c2ccoc2)C2CC2)c1F [I.26] | – |
| 3.25 | Cn1nc(C(F)F)c(C(=O)N(Cc2ncc(C(F)(F)F)cc2-c2cnc3ccccc3c2)C2CC2)c1F [I.27] | – |
| 4.12 | Cc1cscc1-c1cc(C(F)(F)F)cnc1CN(C(=O)c1c(C(F)F)nn(C)c1F)C1CC1 [I.22] | – |
| 2.76 | Cn1nc(C(F)F)c(C(=O)N(Cc2ncc(C(F)(F)F)cc2-c2cc3ccccc3nc2O)C2CC2)c1F [I.28] | – |
| – | Cn1nc(C(F)F)c(C(=O)N(Cc2cc(-c3cc(F)c(F)c(F)c3)no2)C2CC2)c1F [165 from WO2012/059497, N-cyclopropyl-3-(difluoromethyl)-5-fluoro-1-methyl-N-{[3-(3,4,5-trifluorophenyl)-1,2-oxazol-5-yl]methyl}-1H-pyrazole-4-carboxamide] | Efficacy at 100 ppm (Table C1) [2]: 0%; Efficacy at 500 ppm (Table C1) [2]: 10%; protection [2, 3]: good (at least 80%) to no protection |
| 3.89 | Cn1ccc(-c2c(CN(C(=O)c3c(C(F)F)nn(C)c3F)C3CC3)sc3ccccc23)c1 [I.51] | – |
| – | Cc1nn(-c2ccccc2)nc1CN(C(=O)c1c(C(F)F)nn(C)c1F)C1CC1 [131 from WO2012/059497, N-cyclopropyl-3-(difluoromethyl)-5-fluoro-1-methyl-N-[(5-methyl-2-phenyl-2H-1,2,3-triazol-4-yl)methyl]-1H-pyrazole-4-carboxamide] | Efficacy at 100 ppm (Table C1) [2]: 0%; Efficacy at 500 ppm (Table C1) [2]: 11%; protection [2, 3]: good (at least 80%) to no protection |
| 1.66 | Cn1cncc1-c1c(CN(C(=O)c2c(C(F)F)nn(C)c2F)C2CC2)sc2ccccc12 [I.48] | – |
| 3.69 | Cc1ccc(-c2cc(C(F)(F)F)cnc2CN(C(=O)c2c(C(F)F)nn(C)c2F)C2CC2)o1 [I.33] | – |
| 4.18 | Cc1ccc(-c2ccsc2CN(C(=O)c2cn(C)cc2C(F)(F)F)C2CC2)s1 [I.09] | – |
| – | Cc1nc(-c2ccc(Cl)cc2)sc1CN(C(=O)c1cn(C)nc1C(F)F)C1CC1 [45 from WO2008/015189, N-{[2-(4-chlorophenyl)-4-methyl-1,3-thiazol-5-yl]methyl}-N-cyclopropyl-3-(difluoromethyl)-1-methyl-1H-pyrazole-4-carboxamide] | Efficacy (Table C3) ([2]; dose 500 ppm): 0% |
| 3.48 | CC(=O)c1ccc(-c2cc(C(F)(F)F)cnc2CN(C(=O)c2c(C(F)F)nn(C)c2F)C2CC2)s1 [I.24] | – |
| – | Cn1cc(C(=O)N(Cc2nc(-c3ccc(Cl)cc3)cs2)C2CC2)c(C(F)(F)F)n1 [59 from WO2008/015189, N-{[4-(4-chlorophenyl)-1,3-thiazol-2-yl]methyl}-N-cyclopropyl-1-methyl-3-(trifluoromethyl)-1H-pyrazole-4-carboxamide] | Efficacy (Table C3) ([2]; dose 500 ppm): 0% |
| 3.68 | Cn1nc(C(F)F)c(C(=O)N(Cc2ncc(C(F)(F)F)cc2-c2ccco2)C2CC2)c1F [I.30] | – |
| – | Cn1nc(C(=O)N(Cc2nc(-c3ccc(Cl)cc3)cs2)C2CC2)c(C(F)(F)F)n1 [50 from WO2008/015189, N-{[4-(4-chlorophenyl)-1,3-thiazol-2-yl]methyl}-N-cyclopropyl-2-methyl-5-(trifluoromethyl)-2H-1,2,3-triazole-4-carboxamide] | Efficacy (Table C3) ([2]; dose 500 ppm): 0% |

| logP [1] | Structure (SMILES) | also measured |
| --- | --- | --- |
| 4.73 | Cn1nc(C(F)F)c(C(=O)N(Cc2ncc(C(F)(F)F)cc2-c2cc3ccccc3s2)C2CC2)c1F [I.25] | – |
| 4.54 | Cn1nc(C(F)F)c(C(=O)N(Cc2ncc(C(F)(F)F)cc2-c2ccc(Cl)s2)C2CC2)c1F [I.18] | – |
| 4.61 | CC(C)c1nc(-c2c(CN(C(=O)c3c(C(F)F)nn(C)c3F)C3CC3)sc3ccccc23)cs1 [I.49] | – |
| 3.09 | Cn1cc(C(=O)N(Cc2cc(Br)cnc2Sc2nccs2)C2CC2)c(C(F)F)n1 [Example I.58] | – |
| 3.27 | Cn1cc(C(=O)N(Cc2cc(Br)cnc2Sc2cnc3ccccc3c2)C2CC2)c(C(F)F)n1 [Example I.57] | – |
| 4.11 | Cc1ccsc1-c1cc(C(F)(F)F)cnc1CN(C(=O)c1c(C(F)F)nn(C)c1F)C1CC1 [I.34] | – |
| 4.46 | Cn1nc(C(F)F)c(C(=O)N(Cc2ncc(C(F)(F)F)cc2-c2csc3ccccc23)C2CC2)c1F [I.20] | – |
| 3.15 | Cn1nc(C(F)F)c(C(=O)N(Cc2nn(-c3ccccc3)cc2C2CCOCC2)C2CC2)c1F [I.04] | – |
| – | Cn1nc(C(F)F)c(C(=O)N(Cc2ncc(C(F)(F)F)cc2-c2ccsc2)C2CC2)c1F [I.17, N-cyclopropyl-3-(difluoromethyl)-5-fluoro-1-methyl-N-{[3-(3-thienyl)-5-(trifluoromethyl)pyridin-2-yl]methyl}-1H-pyrazole-4-carboxamide] | chromatographic logP [1]: 3.67 |
| 4.69 | Cc1ccc(-c2ccsc2CN(C(=O)c2ccsc2Br)C2CC2)s1 [I.08] | – |
| 3.29 | Cn1cc(C(=O)N(Cc2ncc(C(F)(F)F)cc2-c2ccco2)C2CC2)c(C(F)F)n1 [I.40] | – |
| 3.51 | Cc1noc(C)c1-c1c(CN(C(=O)c2c(C(F)F)nn(C)c2F)C2CC2)sc2ccccc12 [Example I.55] | – |
| – | Cc1ccc(-c2ccsc2CNC2CC2)s1 [IIb.01, N-[(5-methyl-2,3′-bithiophen-2′-yl)methyl]cyclopropanamine] | chromatographic logP [1]: 1.39 |
| 2.76 | Cn1nc(C(F)F)c(C(=O)N(Cc2sc3ccccc3c2-c2cncnc2)C2CC2)c1F [I.54] | – |
| 4.27 | Cc1csc(-c2cc(C(F)(F)F)cnc2CN(C(=O)c2c(C(F)F)nn(C)c2F)C2CC2)c1 [I.32] | – |
| 3.92 | Cn1cc(C(=O)N(Cc2ncc(C(F)(F)F)cc2-c2csc3ccccc23)C2CC2)c(C(F)F)n1 [I.42] | – |
| 3.90 | Cn1nc(C(F)F)c(C(=S)N(Cc2ncc(C(F)(F)F)cc2-c2cnc3ccccc3c2)C2CC2)c1F [I.35] | – |
| 3.73 | Cn1cc(C(=O)N(Cc2ncc(C(F)(F)F)cc2-c2coc3ccccc23)C2CC2)c(C(F)F)n1 [I.43] | – |
| 3.15 | Cn1cc(C(=O)N(Cc2ncc(C(F)(F)F)cc2-c2ccoc2)C2CC2)c(C(F)F)n1 [I.46] | – |
| 4.64 | Cn1nc(C(F)F)c(C(=S)N(Cc2nn(-c3ccccc3)cc2-c2ccc3c(ccn3C)c2)C2CC2)c1F [I.05] | – |
| – | Cn1nc(C(F)F)c(C(=O)N(Cc2ncc(C(F)(F)F)cc2Cl)C2CC2)c1F [N-{[3-chloro-5-(trifluoromethyl)pyridin-2-yl]methyl}-N-cyclopropyl-3-(difluoromethyl)-5-fluoro-1-methyl-1H-pyrazole-4-carboxamide] | chromatographic logP [1]: 3.35 |
| 4.20 | Cc1occc1-c1c(CN(C(=O)c2c(C(F)F)nn(C)c2F)C2CC2)sc2ccccc12 [I.52] | – |
| 3.46 | Cn1cc(C(=O)N(Cc2ncc(C(F)(F)F)cc2-c2cccs2)C2CC2)c(C(F)F)n1 [I.39] | – |
| 3.26 | Cn1nc(C(F)F)c(C(=O)N(Cc2nn(-c3ccccc3)cc2C2=CCOCC2)C2CC2)c1F [I.02] | – |
| 3.27 | Cn1cc(C(=O)N(Cc2ncc(C(F)(F)F)cc2-c2ccnc3cc(Cl)ccc23)C2CC2)c(C(F)F)n1 [I.45] | – |
